Where two headings read alike, the source gives them in different places. A value given as a limit tells only on which side of the number the result lay.

The target of assay [1] is T1, AuroraA-TPX2 (Homo sapiens, UniProt O14965).
T1 construct: 20 µL of AuroraA-TPX2 KD GST; GST
T1 sequence (O14965 133-383 limits assumed): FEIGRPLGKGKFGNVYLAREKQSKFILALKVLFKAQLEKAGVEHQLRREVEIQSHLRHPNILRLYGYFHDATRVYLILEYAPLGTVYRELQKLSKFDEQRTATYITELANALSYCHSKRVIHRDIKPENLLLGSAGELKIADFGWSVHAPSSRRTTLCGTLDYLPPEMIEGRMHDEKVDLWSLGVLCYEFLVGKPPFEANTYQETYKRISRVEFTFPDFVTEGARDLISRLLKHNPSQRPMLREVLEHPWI
T1 sequence (Q9ULW0 1-43 partner limits assumed): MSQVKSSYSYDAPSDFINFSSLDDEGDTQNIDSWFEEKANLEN
Kind of assay: AuroraA-TPX2 Homogeneous Time Resolved Fluorescent (HTRF) kinase assay. In kind it is biochemical. Particulars: average, read-out: AurA/TP X2_ IC50_IP (Avg). In short, it runs like this: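 Aurora-A/TPX2 phosphorylates biotinylated PLK peptide (about 1 µM) with ATP for about 120 min in 60 mM HEPES pH 7.5, 10 mM MgCl2, 2 mM DTT. EDTA quench, overnight equilibration with Eu-anti-phosphoPLK antibody and SA-APC; HTRF read at 615/655 nm after 320 nm excitation.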
(In general: Time-resolved FRET reads energy transfer from a long-lived donor to a nearby acceptor.)

Assay [2] concerns the target T2, AuroraB (Homo sapiens, UniProt Q96GD4).
T2 construct: 20 µL of AuroraB FL His; His
The assay is described as follows: AuroraB Homogeneous Time Resolved Fluorescent (HTRF) kinase assay. In kind it is biochemical. As to conditions: average, read-out: AurB_ _IC50_IP (Avg). Summed up: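 Full-length His-tagged AuroraB (400 pM) phosphorylates 0.1 µM biotinylated Histone H3 with 23 µM ATP (Km(app)) in HEPES pH 7.5 with Mg/Mn, about 90 min. EDTA-quenched; Eu-anti-phosphoHistoneH3 and SA-APC HTRF, 655/615 nm ratio as phosphorylation.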

Assay [3] relates to phosphorylation of Histone H3. The assay is described as follows: HeLa cell 1-hour phospho-histone assay. In kind it is cell-based. Particulars: Homo sapiens, HeLa, 1 h, HeLa cells, 1 hour, average, read-out: pHH3 EC50_IP (Avg). As to the method:
HeLa cell 1-hour phospho-histone assay
The purpose of this assay is to test the inhibitory effect of Aurora compounds with respect to phosphorylation of Histone H3 in the cellular context. HeLa cells (9x10^4/well) are plated in black 96-well flat-bottom tissue culture plates and incubated for 40 hours prior to compound addition. Compounds are serially diluted in DMSO, followed by dilution into MEM containing […] HEPES; 10ul/well of diluted compounds are added to cells (0.5% DMSO final). Cells are incubated for 1 hour at 37 °C in 5% CO2. Cells are then fixed with 3.7% formaldehyde for 10 minutes, washed with wash buffer (1% goat serum and 0.1% Tween 20 in PBS), then permeabilized with 0.5% Triton X in PBS for 15 minutes. After washing with wash buffer, cells are incubated with primary antibody (Upstate #06-507 anti-phospho-histone (Ser 10) antibody (pHH3) for 1 hour at 10ug/ml. After 2 washes with wash buffer, cells are incubated with secondary antibody (Molecular Probes #A11034 goat anti-rabbit Alexa-488 for 1 hour at 1ug/ml + Hoechst 33342 nuclear dye at 1ug/ml (Molecular Probes). Cells are washed 2 times with wash buffer, and buffer replaced with PBS. Plates are scanned on the Cellomics Array Scan (6 fields, ~2000 cells/well) and % of cells that are pHH3 positive were calculated using the Cellomics algorithm.

The mark [4] stands for this setting: given as numbers, unit inferred.

T2 sequence (Q96GD4 whole entry): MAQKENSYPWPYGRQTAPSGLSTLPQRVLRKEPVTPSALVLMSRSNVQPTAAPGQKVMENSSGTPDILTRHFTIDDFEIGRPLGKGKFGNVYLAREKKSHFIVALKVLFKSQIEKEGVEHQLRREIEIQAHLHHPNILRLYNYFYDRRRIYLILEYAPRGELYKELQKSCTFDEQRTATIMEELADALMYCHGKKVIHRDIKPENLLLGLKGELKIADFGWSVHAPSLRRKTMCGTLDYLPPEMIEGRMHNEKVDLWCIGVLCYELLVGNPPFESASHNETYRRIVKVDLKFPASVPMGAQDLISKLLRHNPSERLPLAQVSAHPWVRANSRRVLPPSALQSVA

Turning to `Cc1cc(-c2ccccc2)nnc1Nc1ccc(Oc2ncccc2-c2c[nH]nc2N)cc1` [compound 302, N-(4-((3-(3-amino-1H-pyrazol-4-yl)-2-pyridinyl)oxy)phenyl)-4-methyl-6-phenyl-3-pyridazinamine], the IC50 in assay [1] (given as class symbols) and in assay [2] (given as class symbols) was ≤ 100 nM throughout. For the same compound, in assay [3] (given as class symbols), the EC50 was 500 to 2500 nM.

On to `Nc1n[nH]cc1-c1cccnc1Oc1ccc(Nc2nnc(Cc3ccccc3)c3ccccc23)cc1` [compound 303, N-(4-((3-(3-amino-1H-pyrazol-4-yl)-2-pyridinyl)oxy)phenyl)-4-(phenylmethyl)-1-phthalazinamine], for which the IC50 in assay [1] (setting [4]) was 3.2 nM; in assay [2] (setting [4]), 16.6 nM. Moreover, in assay [3] (setting [4]), the EC50 is 729 nM.

In the case of `Nc1n[nH]cc1-c1cccnc1Oc1ccc(Nc2nnc(-c3ccccc3)c3ccsc23)cc1` [compound 304, N-(4-((3-(3-amino-1H-pyrazol-4-yl)-2-pyridinyl)oxy)phenyl)-4-phenylthieno[2,3-d]pyridazin-7-amine], the values for the IC50 in assay [1] (setting [4]) and in assay [2] (setting [4]) were 16.4 nM and 68.7 nM, respectively. In addition, in assay [3] (setting [4]), the EC50 turned out to be 788 nM.

Turning to `Nc1n[nH]cc1-c1cccnc1Oc1ccc(Nc2nnc(-c3cccc(CO)c3)c3ccccc23)cc1` [compound 305, (3-(4-((4-((3-(3-amino-1H-pyrazol-4-yl)-2-pyridinyl)oxy)phenyl)amino)-1-phthalazinyl)phenyl)methanol], the IC50 in assay [1] (given as class symbols) and in assay [2] (given as class symbols) was ≤ 100 nM in each case. In addition, the EC50 in assay [3] (given as class symbols) was 500 to 2500 nM.

For the compound `Nc1n[nH]cc1-c1cccnc1Oc1ccc(Nc2nnc(-c3ccc(Cl)cc3)c3ccccc23)cc1` [compound 306, N-(4-((3-(3-amino-1H-pyrazol-4-yl)-2-pyridinyl)oxy)phenyl)-4-(4-chlorophenyl)-1-phthalazinamine], the IC50 in assay [1] (given as class symbols) and in assay [2] (given as class symbols) was ≤ 100 nM each time. The EC50 in assay [3] (given as class symbols) lay within 100 to 500 nM.

As to `Cc1csc(-c2nnc(Nc3ccc(Oc4ncccc4-c4c[nH]nc4N)cc3)c3ccccc23)c1` [compound 307, N-(4-((3-(3-amino-1H-pyrazol-4-yl)-2-pyridinyl)oxy)phenyl)-4-(4-methyl-2-thienyl)-1-phthalazinamine], the IC50 in assay [1] (given as class symbols) and in assay [2] (given as class symbols) was ≤ 100 nM in each case. For the same compound, in assay [3] (given as class symbols), the EC50 fell in the range of 100 to 500 nM.

As for `Nc1n[nH]cc1-c1cccnc1Oc1ccc(Nc2nnc(-c3ccccc3)c3c2CCCC3)cc1` [compound 308, N-(4-((3-(3-amino-1H-pyrazol-4-yl)-2-pyridinyl)oxy)phenyl)-4-phenyl-5,6,7,8-tetrahydro-1-phthalazinamine], the IC50 in assay [1] (given as class symbols) and in assay [2] (given as class symbols) was ≤ 100 nM in each case. In addition, the EC50 in assay [3] (given as class symbols) was 500 to 2500 nM.

On to `Cc1csc(-c2nnc(Nc3ccc(Oc4ncccc4-c4c[nH]nc4N)cc3)c3ccccc23)n1` [compound 309, N-(4-((3-(3-amino-1H-pyrazol-4-yl)-2-pyridinyl)oxy)phenyl)-4-(4-methyl-1,3-thiazol-2-yl)-1-phthalazinamine], for which the IC50 in assay [1] (given as class symbols) and in assay [2] (given as class symbols) was ≤ 100 nM each time. Also, the EC50 in assay [3] (given as class symbols) lay within 500 to 2500 nM.

`Cc1csc(-c2nnc(Nc3ccc(Oc4ncccc4-c4ccnc(N)n4)cc3)c3ccccc23)n1` [compound 330, N-(4-((3-(2-amino-4-pyrimidinyl)-2-pyridinyi)oxy)phenyl)-4-(4-methyl-1,3-thiazol-2-yl)-1-phthalazinamine]: the IC50 in assay [1] (given as class symbols) and in assay [2] (given as class symbols) was ≤ 100 nM each time. Further, the EC50 in assay [3] (given as class symbols) was ≤ 100 nM.

For the compound `Cc1csc(-c2nnc(Nc3ccc(Oc4ncccc4-c4ccnc(N)n4)nc3)c3ccccc23)c1` [compound 332, N-(6-((3-(2-amino-4-pyrimidinyl)-2-pyridinyl)oxy)-3-pyridinyl)-4-(4-methyl-2-thienyl)-1-phthalazinamine], the results for the IC50 in assay [1] (setting [4]) and in assay [2] (setting [4]) were 5.2 nM and 1.6 nM, respectively. Moreover, in assay [3] (setting [4]), the EC50 worked out at 3.3 nM.

With `CN1CCN(CCCNc2nccc(-c3cccnc3Oc3ccc(Nc4nnc(-c5ccccc5)c5ccccc45)cc3)n2)CC1` [compound 333, N-(4-((3-(2-((3-(4-methyl-1-piperazinyl)propyl)amino)-4-pyrimidinyl)-2-pyridinyl)oxy)phenyl)-4-phenyl-1-phthalazinamine], the IC50 in assay [1] (given as class symbols) and in assay [2] (given as class symbols) was ≤ 100 nM each time. Also, in assay [3] (given as class symbols), the EC50 was ≤ 100 nM.

As to `Cc1cc(N2CCCCC2)nnc1Nc1ccc(Oc2ncccc2-c2ccnc(N)n2)cc1` [compound 334, N-(4-((3-(2-amino-4-pyrimidinyl)-2-pyridinyl)oxy)phenyl)-4-methyl-6-(1-piperidinyl)-3-pyridazinamine], the IC50 in assay [1] (given as class symbols) was 100 to 500 nM; in assay [2] (given as class symbols), ≤ 100 nM. Besides, the EC50 in assay [3] (given as class symbols) fell in the range of 500 to 2500 nM.

Regarding `c1ccc(-c2nnc(Nc3ccc(Oc4ncccc4-c4ccnc(NCC5CCNCC5)n4)cc3)c3ccccc23)cc1` [compound 335, 4-phenyl-N-(4-((3-(2-((4-piperidinylmethyl)amino)-4-pyrimidinyl)-2-pyridinyl)oxy)phenyl)-1-phthalazinamine], the IC50 in assay [1] (given as class symbols) lay in the range of 500 to 2500 nM; in assay [2] (given as class symbols) it was 100 to 500 nM. Further, in assay [3] (given as class symbols), the EC50 lay within 500 to 2500 nM.

As for `CN(C)Cc1ccc(-c2nnc(Nc3ccc(Oc4ncccc4-c4ccnc(N)n4)cc3)c3ccccc23)cc1` [compound 336, N-(4-((3-(2-amino-4-pyrimidinyl)-2-pyridinyl)oxy)phenyl)-4-(4-((dimethylamino)methyl)phenyl)-1-phthalazinamine], the IC50 lay in the range of 500 to 2500 nM in assay [1] (given as class symbols) and 100 to 500 nM in assay [2] (given as class symbols). The EC50 in assay [3] (given as class symbols) lay in the range of 500 to 2500 nM.

As to `OCC(O)CNc1nccc(-c2cccnc2Oc2ccc(Nc3nnc(-c4ccccc4)c4ccccc34)cc2)n1` (stereo not drawn) [compound 337, 3-((4-(2-((4-((4-phenyl-1-phthalazinyl)amino)phenyl)oxy)-3-pyridinyl)-2-pyrimidinyl)amino)-1,2-propanediol], the IC50 in assay [1] (given as class symbols) and in assay [2] (given as class symbols) was ≤ 100 nM each time. Further, the EC50 in assay [3] (given as class symbols) is 100 to 500 nM.

`CN(C)CCCCNc1nccc(-c2cccnc2Oc2ccc(Nc3nnc(-c4ccccc4)c4ccccc34)cc2)n1` [compound 338, N,N-dimethyl-N'-(4-(2-((4-((4-phenyl-1-phthalazinyl)amino)phenyl)oxy)-3-pyridinyl)-2-pyrimidinyl)-1,4-butanediamine]: the IC50 in assay [1] (given as class symbols) and in assay [2] (given as class symbols) was ≤ 100 nM in each case. In addition, the EC50 in assay [3] (given as class symbols) is ≤ 100 nM.

`OCCCNc1nccc(-c2cccnc2Oc2ccc(Nc3nnc(-c4ccccc4)c4ccccc34)cc2)n1` [compound 339, 3-((4-(2-((4-((4-phenyl-1-phthalazinyl)amino)phenyl)oxy)-3-pyridinyl)-2-pyrimidinyl)amino)-1-propanol]: the IC50 in assay [1] (given as class symbols) and in assay [2] (given as class symbols) was ≤ 100 nM in each case. In addition, in assay [3] (given as class symbols), the EC50 lay within 100 to 500 nM.

Turning to `c1ccc(-c2nnc(Nc3ccc(Oc4ncccc4-c4ccnc(NCCCN5CCNCC5)n4)cc3)c3ccccc23)cc1` [compound 340, 4-phenyl-N-(4-((3-(2-((3-(1-piperazinyl)propyl)amino)-4-pyrimidinyl)-2-pyridinyl)oxy)phenyl)-1-phthalazinamine], the IC50 in assay [1] (given as class symbols) and in assay [2] (given as class symbols) was ≤ 100 nM each time. In assay [3] (given as class symbols), the EC50 was 100 to 500 nM.

Regarding `OCCN(CCO)CCCNc1nccc(-c2cccnc2Oc2ccc(Nc3nnc(-c4ccccc4)c4ccccc34)cc2)n1` [compound 341, 2,2'-((3-((4-(2-((4-((4-phenyl-1-phthalazinyl)amino)phenyl)oxy)-3-pyridinyl)-2-pyrimidinyl)amino)propyl)imino)diethanol], the IC50 in assay [1] (given as class symbols) was 100 to 500 nM; in assay [2] (given as class symbols) it was ≤ 100 nM. Further, in assay [3] (given as class symbols), the EC50 was in the range of 100 to 500 nM.

Consider `Nc1nccc(-c2cccnc2Oc2ccc(Nc3nnc(-c4cccc(CO)c4)c4ccccc34)cc2)n1` [compound 342, (3-(4-((4-((3-(2-amino-4-pyrimidinyl)-2-pyridinyl)oxy)phenyl)amino)-1-phthalazinyl)phenyl)methanol], for which the IC50 in assay [1] (given as class symbols) and in assay [2] (given as class symbols) was ≤ 100 nM throughout. In addition, the EC50 in assay [3] (given as class symbols) lay in the range of 100 to 500 nM.
